Tests used:
BCC tumors [1] = experiment: oral itraconazole on endogenous BCC tumors in PTCH1+/- K14-Cre-ER2 p53fl/fl mice; type: in vivo
BCC tumors [2] = experiment: oral itraconazole in patients with BCC tumors; type: in vivo, humans; details: oral 400 mg per day for 1 month
[3] = cited from earlier work
[4] = system: Hedgehog signaling pathway (Smo); details: cited from earlier work
[5] = cited from earlier work; remark: listed apart in the source
[6] = system: BSZ BCC tumor cell line (GLI1 mRNA); experiment: GLI1 mRNA expression in BCC tumor cell line BSZ; type: cell-based, mice; details: BSZ cells, vs DMSO control
[7] = system: ASZ BCC tumor cell line (GLI1 mRNA); experiment: GLI1 mRNA expression in BCC tumor cell line ASZ; type: cell-based, mice; details: ASZ cells, vs DMSO control
BCCs (Smo) = details: cited from earlier work

| SMILES | serum concentrations required for oral anti-BCC effect in mouse vs those reached in humans at regular therapeutic doses (400 mg/day orally) (BCC tumors [1]; in vivo mouse studies) | BCC tumor necrosis (BCC tumors [1]; itraconazole 400 mg/day vs cyclodextrin control treated mice, P<0.02, FIG. 2 left) | reduction of BCC tumor size (BCC tumors [1]; oral gavage, 200 mg BID, in 15 days, vs control (cyclodextrin or acetone), P<0.05, FIG. 1) | change of BCC tumor size on average (95% Confidence Interval: 11% to −62%) (BCC tumors [2]) | Protein binding [3] | ciliary accumulation of Smo normally caused by HH stimulation [4] | inhibition of the HH signaling pathway ([4]; model cell-based assays, by binding to Smo) | expression of the HH target gene GLI1 ([4]; model cell-based assays) | Half-life ([5]; in vivo) | Oral Bio-availability ([5]; with meal) | GLI1 mRNA expression ([6]; 0.1 μM) | GLI1 mRNA expression ([6]; 1.0 μM) | GLI1 mRNA expression ([7]; 0.1 μM) | GLI1 mRNA expression ([7]; 1.0 μM) | inhibition of BCCs (BCCs (Smo); model systems (in vitro and in vivo)) | side effects (BCCs (Smo); systemic use) |
| --- | --- | --- | --- | --- | --- | --- | --- | --- | --- | --- | --- | --- | --- | --- | --- | --- |
| CCC(C)n1ncn(-c2ccc(N3CCN(c4ccc(OC[C@H]5CO[C@](Cn6cncn6)(c6ccc(Cl)cc6Cl)O5)cc4)CC3)cc2)c1=O (relative stereo) [itraconazole, (2R,4S)-rel-1-(butan-2-yl)-4-{4-[4-(4-{[(2R,4S)-2-(2,4-dichlorophenyl)-2-(1H-1,2,4-triazol-1-ylmethyl)-1,3-dioxolan-4-yl]methoxy}phenyl)piperazin-1-yl]phenyl]-4,5-dihydro-1H-1,2,4-triazol-5-one] | appreciably higher | caused BCC tumor necrosis | 50% | −21% | 99.8% | prevents | potently inhibited | decreased | 21 h | 55% | reduced | reduced | reduced | reduced |  |  |
| CC1=C2C[C@H]3[C@@H](CC=C4C[C@@H](O)CC[C@@]43C)[C@@H]2CC[C@]12O[C@@H]1C[C@H](C)CN[C@H]1[C@H]2C [cyclopamine] |  |  |  |  |  |  |  |  |  |  |  |  |  |  | effectively inhibited | severe side effects |

— US9072660B2, “Topical itraconazole formulations and uses thereof” (THE BOARD OF TRUSTEES OF THE LELAND STANFORD JUNIOR …, priority 2011, dated 2015)
